We go through 16 compounds from patent US8314250B2, “Sultam derivatives” (Hoffmann-La Roche Inc., priority 2009, dated 2012).

Structures can show the parent of a compound that is named as a salt.

The test has as its system HeLa cells. Kind of test: CellTiter-Glo luminescent cell viability (cytotoxicity) assay. The format is cell-based. Particulars: Homo sapiens, HeLa, 48 h, 10 μM test compound, inhibition of luminescence compared to control cells, read-out: Activity (PCT_INHIB @ 10 μM). As to the method:
Cytotoxicity was assessed using Promega's CellTiter-Glo® luminescent cell viability assay (Promega Corporation, Madison, Wis., USA) as described in Promega Technical Bulletin TB288, revised August 2008. The assay was performed in HeLa cells at a maximum concentration tested of 10 μM of test compound. This assay measures the amount of adenosine triphosphate (ATP) present as a way of quantifying the presence and degree of metabolic activity in cell cultures.
Viable Hela cells were plated at a density of 3000 cells/well in 96 wells in black, clear bottom plates. Cells were allowed to attach to the plate by incubating overnight at 37° C. Test compounds were diluted in DMSO then further diluted in 10% FBS media. Media was removed from the cell plates and 50 μL of the solution was added to each well manually with the exception of the control well, which contained the same volume of 10% FBS media which includes 1% DMSO. Cells were incubated in the presence of compound undisturbed for 48 hours at 37° C. After the 48 hour compound exposure, 50 μL of the pCellTiter Glo® reagent was added. The cell plates were agitated on a shaker for 2 minutes to help lyse the cells. The plate was covered and read for luminescence.
Percent inhibition was calculated as follows: PCT_INHIB=100*[(U−T)/U] Where U represents the Luminescence of wells containing untreated cells and
T represents the Luminescence of wells containing compound-treated cells
A general note: Cellular ATP, detected with luciferase, serves as a proxy for viable cell number.

Consider `C[C@@H]1[C@@H](NC(=O)C2CCS(=O)(=O)N2Cc2cccc(CN(Cc3ccccc3OC(F)F)[C@H](CN(C)C)CC(C)(C)C)c2)C[C@H]2C[C@@H]1C2(C)C` (stereo partly drawn) [Example 5, 2-(3-{[(2-Difluoromethoxy-benzyl)-((S)-1-dimethylaminomethyl-3,3-dimethyl-butyl)amino]-methyl}-benzyl)-1,1-dioxo-1λ^6-isothiazolidine-3-carboxylic acid((1S,2S,3S,5R)-2,6,6-trimethyl-bicyclo[3.1.1]hept-3-yl)-amide trifluoroacetate salt], for which the inhibition at 10 µM worked out at 87%.
The same measure for `COc1ccc(Cl)c(CN(Cc2cccc(CN3C(C(=O)NC45CC6CC(CC(C6)C4)C5)CCS3(=O)=O)c2)[C@H](CN(C)C)CC(C)(C)C)c1F` (stereo partly drawn) [Example 20, 2-(3-{[(6-Chloro-2-fluoro-3-methoxy-benzyl)-((S)-1-dimethylaminomethyl-3,3-dimethyl-butyl)-amino]-methyl}-benzyl)-1,1-dioxo-1λ^6-isothizolidine-3-carboxylic acid adamantan-1-ylamide]: 95%.
The same measure for `C[C@@H]1[C@@H](NC(=O)C2CCS(=O)(=O)N2Cc2cccc(CN(Cc3ccccc3-c3ccc(F)cc3)[C@H](CN(C)C)CC(C)(C)C)c2)C[C@H]2C[C@@H]1C2(C)C` (stereo partly drawn) [Example 8, 2-(3-{[((S)-1-Dimethylaminomethyl-3,3-dimethyl-butyl)-(4′-fluoro-biphenyl-2 ylmethyl)-amino]-methyl}-benzyl)-1,1-dioxo-1λ^6-isothiazolidine-3-carboxylic acid((1S,2S,3S,5R)-2,6,6-trimethyl-bicyclo[3.1.1]hept-3-yl)-amide trifluoroacetate salt]: 97%; for `C[C@@H]1[C@@H](NC(=O)C2CCS(=O)(=O)N2Cc2cccc(CN(Cc3ccccc3I)[C@H](CN(C)C)CC(C)(C)C)c2)C[C@H]2C[C@@H]1C2(C)C` (stereo partly drawn) [Example 2, 2-(3-{[((S)-1-Dimethylaminomethyl-3,3-dimethyl-butyl)-(2-iodo-benzyl)-amino]-methyl}-benzyl)-1,1-dioxo-1λ^6-isothiazolidine-3-carboxylic acid((1S,2S,3S,5R)-2,6,6-trimethyl-bicyclo[3.1.1]hept-3-yl)-amide trifluoroacetate salt]: 50%; for `COc1ccc(Cl)c(CN(Cc2cccc(CN3C(C(=O)N4CCC(c5ccccc5)CC4)CCS3(=O)=O)c2)[C@H](CN(C)C)CC(C)(C)C)c1F` (stereo partly drawn) [Example 24, [2-(3-{[(6-Chloro-2-fluoro-3-methoxy-benzyl)-((S)-1-dimethylaminomethyl-3,3-dimethyl-butyl)-amino]-methyl}-benzyl)-1,1-dioxo-1λ^6-isothiazolidin-3-yl]-(4-phenyl-piperidin-1-yl)-methanone]: 96%.
The same measure for `C[C@@H]1[C@@H](NC(=O)C2CCS(=O)(=O)N2Cc2cccc(CN(Cc3cc(Cl)ccc3O)[C@H](CN(C)C)CC(C)(C)C)c2)C[C@H]2C[C@@H]1C2(C)C` (stereo partly drawn) [Example 1, 2-(3-{[(5-Chloro-2-hydroxy-benzyl)-((S)-1-dimethylaminomethyl-3,3-dimethyl-butyl)-amino]-methyl}-benzyl)-1,1-dioxo-1λ^6-isothiazolidine-3-carboxylic acid((1S,2S,3S,5R)-2,6,6-trimethyl-bicyclo[3.1.1]hept-3-yl)-amide]: 96%; for `COc1ccc(Cl)c(CN(Cc2cccc(CN3C(C(=O)N[C@H]4C[C@H]5C[C@@H]([C@@H]4C)C5(C)C)CCS3(=O)=O)c2)[C@@H](Cc2ccc(Cl)cc2)CN(C)C)c1F` (stereo partly drawn) [Example 23, 2-[3-({(6-Chloro-2-fluoro-3-methoxy-benzyl)-[(S)-2-(4-chloro-phenyl)-1-dimethylaminomethyl-ethyl]-amino}-methyl)-benzyl]-1,1-dioxo-1λ^6-isothiazolidine-3-carboxylic acid((1S,2S,3S,5R)-2,6,6-trimethyl-bicyclo[3.1.1]hept-3-yl)-amide]: 96%.
Take `C[C@@H]1[C@@H](NC(=O)C2CCS(=O)(=O)N2Cc2cccc(CN(Cc3c(F)ccc(Br)c3F)[C@H](CN(C)C)CC(C)(C)C)c2)C[C@H]2C[C@@H]1C2(C)C` (stereo partly drawn) [Example 18, 2-(3-{[(3-Bromo-2,6-difluoro-benzyl)-((S)-1-dimethylaminomethyl-3,3-dimethyl-butyl)-amino]-methyl}-benzyl)-1,1-dioxo-1λ^6-isothiazolidine-3-carboxylic acid((1S,2S,3S,5R)-2,6,6-trimethyl-bicyclo[3.1.1]hept-3-yl)-amide trifluoroacetate salt]: the inhibition at 10 µM was determined as 94%.
The same measure for `C[C@@H]1[C@@H](NC(=O)C2CCS(=O)(=O)N2Cc2cccc(CN(Cc3c(F)ccc(F)c3F)[C@H](CN(C)C)CC(C)(C)C)c2)C[C@H]2C[C@@H]1C2(C)C` (stereo partly drawn) [Example 13, 2-(3-{[((S)-1-Dimethylaminomethyl-3,3-dimethyl-butyl)-(2,3,6-trifluoro-benzyl)-amino]-methyl}-benzyl)-1,1-dioxo-1λ^6-isothiazolidine-3-carboxylic acid((1S,2S,3S,5R)-2,6,6-trimethyl-bicyclo[3.1.1]hept-3-yl)-amide trifluoroacetate salt]: 93%.
Turning to `Cc1ccccc1-c1ccccc1CN(Cc1cccc(CN2C(C(=O)N[C@H]3C[C@H]4C[C@@H]([C@@H]3C)C4(C)C)CCS2(=O)=O)c1)[C@H](CN(C)C)CC(C)(C)C` (stereo partly drawn) [Example 11, 2-(3-{[((S)-1-Dimethylaminomethyl-3,3-dimethyl-butyl)-(2′-methyl-biphenyl-2 ylmethyl)-amino]-methyl}-benzyl)-1,1-dioxo-1λ^6-isothiazolidine-3-carboxylic acid((1S,2S,3S,5R)-2,6,6-trimethyl-bicyclo[3.1.1]hept-3-yl)-amide trifluoroacetate salt], the inhibition at 10 µM came out at 97%.
The same measure for `Cc1ccc(Oc2ccccc2CN(Cc2cccc(CN3C(C(=O)N[C@H]4C[C@H]5C[C@@H]([C@@H]4C)C5(C)C)CCS3(=O)=O)c2)[C@H](CN(C)C)CC(C)(C)C)cc1` (stereo partly drawn) [Example 7, 2-(3-{[((S)-1-Dimethylaminomethyl-3,3-dimethyl-butyl)-(2-p-tolyloxy-benzyl)-amino]-methyl}-benzyl)-1,1-dioxo-1λ^6-isothiazolidine-3-carboxylic acid((1S,2S,3S,5R)-2,6,6-trimethyl-bicyclo[3.1.1]hept-3-yl)-amide trifluoroacetate salt]: 58%.
The same measure for `Cc1ccc(CN(Cc2cccc(CN3C(C(=O)N[C@H]4C[C@H]5C[C@@H]([C@@H]4C)C5(C)C)CCS3(=O)=O)c2)[C@H](CN(C)C)CC(C)(C)C)c(O)c1` (stereo partly drawn) [Example 9, 2-(3-{[((S)-1-Dimethylaminomethyl-3,3-dimethyl-butyl)-(2-hydroxy-4-methylbenzyl)-amino]-methyl}-benzyl)-1,1-dioxo-1λ^6-isothiazolidine-3-carboxylic acid((1S,2S,3S,5R)-2,6,6-trimethyl-bicyclo[3.1.1]hept-3-yl)-amide trifluoroacetate salt]: 96%; for `COc1ccc(Br)c(CN(Cc2cccc(CN3C(C(=O)N[C@H]4C[C@H]5C[C@@H]([C@@H]4C)C5(C)C)CCS3(=O)=O)c2)[C@H](CN(C)C)CC(C)(C)C)c1O` (stereo partly drawn) [Example 14, 2-(3-{[(6-Bromo-2-hydroxy-3-methoxy-benzyl)-((S)-1-dimethylaminomethyl-3,3-dimethyl-butyl)-amino]-methyl}-benzyl)-1,1-dioxo-1λ^6-isothiazolidine-3-carboxylic acid((1S,2S,3S,5R)-2,6,6-trimethyl-bicyclo[3.1.1]hept-3-yl)-amide trifluoroacetate salt]: 75%; for `COc1ccc(Cl)c(CN(Cc2cccc(CN3C(C(=O)N[C@H]4C[C@H]5C[C@@H]([C@@H]4C)C5(C)C)CCS3(=O)=O)c2)[C@@H](Cc2ccccc2)CN(C)C)c1F` (stereo partly drawn) [Example 21, 2-(3-{[(6-Chloro-2-fluoro-3-methoxy-benzyl)-((S)-1-dimethylaminomethyl-2-phenyl-ethyl)-amino]-methyl}-benzyl)-1,1-dioxo-1λ^6-isothiazolidine-3-carboxylic acid((1S,2S,3S,5R)-2,6,6-trimethyl-bicyclo[3.1.1]hept-3-yl)-amide]: 77%.
The same measure for `COc1ccc(Cl)c(CN(Cc2cccc(CN3C(C(=O)N[C@@H]4C[C@@H]5C[C@H]([C@H]4C)C5(C)C)CCS3(=O)=O)c2)[C@H](CN(C)C)CC(C)(C)C)c1F` (stereo partly drawn) [Example 19, 2-(3-{[(6-Chloro-2-fluoro-3-methoxy-benzyl)-((S)-1-dimethylaminomethyl-3,3-dimethyl-butyl)-amino]-methyl}-benzyl)-1,1-dioxo-1λ^6-isothiazolidine-3-carboxylic acid((1R,2R,3R,5S)-2,6,6-trimethyl-bicyclo[3.1.1]hept-3-yl)-amide]: 73%; for `COc1ccc(Cl)c(CN(Cc2cccc(CN3C(C(=O)N4CCC(O)(c5ccc(Cl)cc5)CC4)CCS3(=O)=O)c2)[C@H](CN(C)C)CC(C)(C)C)c1F` (stereo partly drawn) [Example 32, [2-(3-{[(6-Chloro-2-fluoro-3-methoxy-benzyl)-((S)-1-dimethylaminomethyl-3,3-dimethyl-butyl)-amino]-methyl}-benzyl)-1,1-dioxo-1λ^6-isothiazolidin-3-yl]-[4-(4-chloro-phenyl)-4-hydroxy-piperidin-1-yl]-methanone]: 96%.
